Measurements: patent US12552826B2, “PRMT5 inhibitors” (Merck Sharp & Dohme LLC, priority 2018, dated 2026)

Target: T1, PRMT5 (Homo sapiens, UniProt O14744)
T1 construct: endogenous in cells; host or cells: MCF-7
Test: PRMT5 Cell Target Engagement (TE) Assay
Format: cell-based
Details: MCF-7 cells, 3 days treatment, nuclear SDMA by high content imaging
Description: The PRMT5 TE assay is a biomarker assay for identifying compounds that inhibit symmetric dimethylation of arginine (SDMA) of PRMT5 substrates. The following substrates have been reported for PRMT5: Histone H2A and H4 R3, Histone H3 R2, Histone H3 R8, spliceosome Sm proteins, ribosomal protein RPS10, p53, FEN1, nucleoplasmin, nucleolin, EGFR and EBNA. The assay will focus on detecting symmetrically dimethylated nuclear proteins using high content imaging technology. Detection of the expression of symmetrically dimethylated nuclear proteins is through a mixture of primary rabbit monoclonal antibodies to SDMA (CST 13222), which in turn recognized by an Alexafluor 488 dye-conjugated anti-rabbit IgG secondary antibody. The IN Cell Analyzer 2200 or Opera-Phenix measures nuclear Alexafluor 488 fluorescent dye intensity that is directly related to the level of expression of symmetrically dimethylated nuclear proteins at the single cell level. Nuclear AF488 dye intensities are compared to the mean value for DMSO treated cells (MIN) to report percent of inhibition for each compound-treated well.
In this assay, the cell potency (EC50) of each compound was determined from a ten point (1:3 serial dilution; top compound concentration of 10000 nM) titration curve using the following outlined procedure. Each well of a BD falcon collagen coated black/clear bottom 384-well plate was seeded with 4000 MCF-7 cells in 30 μl media and allowed to attach for 5 hours. Media is ATCC-formulated Eagle's Minimum Essential Medium, Catalog No. 30-2003. The following components were added to the base medium: 0.01 mg/mL human recombinant insulin; fetal bovine serum to a final concentration of 10%. Additional 30 μl of media containing 2× compounds were added to each well. Cells were treated for 3 days in 37° C. CO2 incubator. On day 3, cells were fixed with Cytofix, permeabilized with 0.4% Triton-X-100/Cytofix, and washed with D-PBS without Ca/Mg. Cells were blocked with Licor Odessey blocking reagent for 1 hour at room temperature, followed by incubation with anti-SDMA (1:1000) antibody at 4° C. overnight. 1° antibody was removed, followed by three washings with DPBS without Ca/Mg and 0.05% Tween20. Hoechst (5 μg/mL), Cell Mask deep stain (1:2000) and Alexa488-conjugated goat anti-rabbit IgG (2 μg/mL) was added for 1 hour at room temperature. A final washing step (three washes) was performed before sealing plate for imaging on In Cell Analyzer 2200 or Opera-Phenix. Images from analyzer were uploaded to Columbus for image analysis. IC50 values were determined by 4 parameters robust fit of percent fluorescence units vs. (Log10) compound concentrations.

T1 sequence (O14744 whole entry): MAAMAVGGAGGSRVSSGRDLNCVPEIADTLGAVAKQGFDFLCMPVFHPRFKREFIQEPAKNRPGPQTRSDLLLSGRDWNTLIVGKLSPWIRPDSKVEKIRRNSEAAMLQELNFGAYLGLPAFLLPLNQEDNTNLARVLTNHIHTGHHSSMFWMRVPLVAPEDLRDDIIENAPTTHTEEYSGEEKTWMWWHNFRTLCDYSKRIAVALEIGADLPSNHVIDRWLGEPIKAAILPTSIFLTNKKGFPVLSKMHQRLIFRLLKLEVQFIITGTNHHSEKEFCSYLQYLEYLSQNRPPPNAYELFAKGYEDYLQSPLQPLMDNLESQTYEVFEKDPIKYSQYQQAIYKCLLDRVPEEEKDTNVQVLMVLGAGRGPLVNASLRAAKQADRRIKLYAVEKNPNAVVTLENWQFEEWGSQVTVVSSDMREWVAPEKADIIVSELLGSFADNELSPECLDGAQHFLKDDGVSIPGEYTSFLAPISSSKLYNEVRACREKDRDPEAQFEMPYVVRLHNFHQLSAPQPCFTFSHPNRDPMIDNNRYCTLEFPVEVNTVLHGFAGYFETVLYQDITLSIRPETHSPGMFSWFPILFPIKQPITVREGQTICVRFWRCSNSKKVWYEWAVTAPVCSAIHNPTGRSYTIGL
T1 sequence (Q9BQA1 whole entry partner): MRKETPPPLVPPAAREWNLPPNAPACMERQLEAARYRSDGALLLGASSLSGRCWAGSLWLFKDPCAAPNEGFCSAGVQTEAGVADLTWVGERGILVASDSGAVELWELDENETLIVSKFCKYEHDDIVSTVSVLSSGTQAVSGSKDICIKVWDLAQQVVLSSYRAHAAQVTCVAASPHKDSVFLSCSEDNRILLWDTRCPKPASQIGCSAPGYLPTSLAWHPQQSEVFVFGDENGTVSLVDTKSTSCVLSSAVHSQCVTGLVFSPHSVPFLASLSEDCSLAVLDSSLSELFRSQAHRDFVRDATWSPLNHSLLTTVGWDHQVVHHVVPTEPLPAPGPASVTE

Compound	EC50 [µM]
Cc1ccc([C@@H](O)[C@H]2O[C@@H](n3ccc4c(N)ncnc43)[C@H](O)[C@]2(C)O)cc1 [Example 30, 7-[(5R)-3-C-methyl-5-C-(4-methylphenyl)-beta-D-ribofuranosyl]-7H-pyrrolo[2,3-d]pyrimidin-4-amine]	3.17
C[C@@]1(O)[C@@H]([C@@H](O)c2cc(F)cc(C(F)F)c2)O[C@@H](n2ccc3c(N)ncnc32)[C@@H]1O [Example 5, (2R,3S,4R,5R)-5-(4-amino-7H-pyrrolo[2,3-d]pyrimidin-7-yl)-2-((S)-(3-(difluoromethyl)-5-fluorophenyl)(hydroxy)methyl)-3-methyltetrahydrofuran-3,4-diol]	5.06
Cc1ccccc1[C@H](O)[C@H]1O[C@@H](n2ccc3c(N)ncnc32)[C@H](O)[C@]1(C)O [Example 41, 7-[(5S)-3-C-methyl-5-C-(2-methylphenyl)-beta-D-ribofuranosyl]-7H-pyrrolo[2,3-d]pyrimidin-4-amine]	> 10
COc1ccc([C@H](O)[C@H]2O[C@@H](n3ccc4c(N)ncnc43)[C@H](O)[C@]2(C)O)cc1 [Example 33, 7-[(5S)-5-C-(4-methoxyphenyl)-3-C-methyl-beta-D-ribofuranosyl]-7H-pyrrolo[2,3-d]pyrimidin-4-amine]	> 10
Cc1cccc([C@H](O)[C@H]2O[C@@H](n3ccc4c(N)ncnc43)[C@H](O)[C@]2(C)O)c1 [Example 39, 7-[(5S)-3-C-methyl-5-C-(3-methylphenyl)-beta-D-ribofuranosyl]-7H-pyrrolo[2,3-d]pyrimidin-4-amine]	> 10
C[C@@]1(O)[C@@H]([C@@H](O)c2ccc(F)c(F)c2)O[C@@H](n2ccc3c(N)ncnc32)[C@@H]1O [Example 2, (2R,3S,4R,5R)-5-(4-amino-7H-pyrrolo[2,3-d]pyrimidin-7-yl)-2-((S)-(3,4-difluorophenyl)(hydroxy)methyl)-3-methyltetrahydrofuran-3,4-diol]	> 10
C[C@@]1(O)[C@@H]([C@H](O)c2cc(F)cc(C(F)F)c2)O[C@@H](n2ccc3c(N)ncnc32)[C@@H]1O [Example 4, (2R,3S,4R,5R)-5-(4-amino-7H-pyrrolo[2,3-d]pyrimidin-7-yl)-2-((R)-(3-(difluoromethyl)-5-fluorophenyl)(hydroxy)methyl)-3-methyltetrahydrofuran-3,4-diol]	0.016
C[C@@]1(O)[C@@H]([C@@H](O)c2cc(F)cc(C(F)F)c2F)O[C@@H](n2ccc3c(N)ncnc32)[C@@H]1O [Example 7, (2R,3S,4R,5R)-5-(4-amino-7H-pyrrolo[2,3-d]pyrimidin-7-yl)-2-((S)-(3-(difluoromethyl)-2,5-difluorophenyl)(hydroxy)methyl)-3-methyltetrahydrofuran-3,4-diol]	6.55
C[C@@]1(O)[C@@H]([C@H](O)c2cccc(F)c2)O[C@@H](n2ccc3c(N)ncnc32)[C@@H]1O [Example 20, 7-[(5R)-5-C-(3-fluorophenyl)-3-C-methyl-beta-D-ribofuranosyl]-7H-pyrrolo[2,3-d]pyrimidin-4-amine]	0.141
COc1ccc([C@@H](O)[C@H]2O[C@@H](n3ccc4c(N)ncnc43)[C@H](O)[C@]2(C)O)cc1 [Example 32, 7-[(5R)-5-C-(4-methoxyphenyl)-3-C-methyl-beta-D-ribofuranosyl]-7H-pyrrolo[2,3-d]pyrimidin-4-amine]	2.74
Cc1ccccc1[C@@H](O)[C@H]1O[C@@H](n2ccc3c(N)ncnc32)[C@H](O)[C@]1(C)O [Example 40, 7-[(5R)-3-C-methyl-5-C-(2-methylphenyl)-beta-D-ribofuranosyl]-7H-pyrrolo[2,3-d]pyrimidin-4-amine]	2.27
C[C@@]1(O)[C@@H]([C@H](O)c2cc(F)c(F)c(F)c2)O[C@@H](n2ccc3c(N)ncnc32)[C@@H]1O [Example 34, 7-[(5R)-3-C-methyl-5-C-(3,4,5-trifluorophenyl)-beta-D-ribofuranosyl]-7H-pyrrolo[2,3-d]pyrimidin-4-amine]	0.227
C[C@]1(O)[C@@H](O)[C@H](n2ccc3c(N)ncnc32)O[C@@H]1[C@](C)(O)c1cc(C(F)F)c(F)c2c1CNCC2 [Example 10, (2R,3S,4R,5R)-5-(4-amino-7H-pyrrolo[2,3-d]pyrimidin-7-yl)-2-((R)-1-(6-(difluoromethyl)-5-fluoro-1,2,3,4-tetrahydroisoquinolin-8-yl)-1-hydroxyethyl)-3-methyltetrahydrofuran-3,4-diol]	0.0056

Continued, values first:

EC50 [µM]	Compound
> 10	C[C@@]1(O)[C@@H]([C@@H](O)c2ccc(Cl)cc2F)O[C@@H](n2ccc3c(N)ncnc32)[C@@H]1O [Example 43, 7-[(5S)-5-C-(4-chloro-2-fluorophenyl)-3-C-methyl-beta-D-ribofuranosyl]-7H-pyrrolo[2,3-d]pyrimidin-4-amine]
0.278	Cc1ncnc2c1ccn2[C@@H]1O[C@H]([C@H](C)c2cc(C(F)F)c(F)c3c2CNCC3)[C@@](C)(O)[C@H]1O (single isomer, unassigned) [Example 92]
0.032	C[C@@]1(O)[C@@H]([C@H](O)c2cccc(C(F)F)c2)O[C@@H](n2ccc3c(N)ncnc32)[C@@H]1O [Example 56, 7-{(5R)-5-C-[3-(difluoromethyl)phenyl]-3-C-methyl-beta-D-ribofuranosyl}-7H-pyrrolo[2,3-d]pyrimidin-4-amine]
1.82	C[C@@]1(O)[C@@H]([C@H](O)c2ccc(Cl)cc2F)O[C@@H](n2ccc3c(N)ncnc32)[C@@H]1O [Example 42, 7-[(5R)-5-C-(4-chloro-2-fluorophenyl)-3-C-methyl-beta-D-ribofuranosyl]-7H-pyrrolo[2,3-d]pyrimidin-4-amine]
0.182	C[C@]1(O)[C@@H](O)[C@H](n2ccc3c(N)ncnc32)O[C@@H]1[C@](C)(O)c1cccc2c1CNCC2 [Example 63, 7-[6-deoxy-3-C-methyl-5-C-(1,2,3,4-tetrahydroisoquinolin-8-yl)-beta-D-ribo-hexofuranosyl]-7H-pyrrolo[2,3-d]pyrimidin-4-amine]
1.33	C[C@]1(O)[C@@H](O)[C@H](n2ccc3c(N)ncnc32)O[C@@H]1[C@](C)(O)c1cncc(C(F)F)c1 [Example 77, 7-{6-deoxy-5-C-[5-(difluoromethyl)pyridin-3-yl]-3-C-methyl-alpha-L-talofuranosyl}-7H-pyrrolo[2,3-d]pyrimidin-4-amine]
> 10	C[C@@]1(O)[C@@H]([C@@H](O)c2cc(F)c(F)c(C(F)F)c2)O[C@@H](n2ccc3c(N)ncnc32)[C@@H]1O [Example 65, 7-{(5S)-5-C-[3-(difluoromethyl)-4,5-difluorophenyl]-3-C-methyl-beta-D-ribofuranosyl}-7H-pyrrolo[2,3-d]pyrimidin-4-amine]
0.0074	Cc1ncnc2c1ccn2[C@@H]1O[C@H]([C@@H](O)c2cc(C(F)F)c(F)c3c2CNCC3)[C@@](C)(O)[C@H]1O (single isomer, unassigned) [Example 90]
0.507	C[C@]1(O)[C@@H](O)[C@H](n2ccc3c(N)ncnc32)O[C@@H]1[C@@](C)(O)c1cccc2c1CNCC2 [Example 69, 7-[6-deoxy-3-C-methyl-5-C-(1,2,3,4-tetrahydroisoquinolin-8-yl)-beta-D-allofuranosyl]-7H-pyrrolo[2,3-d]pyrimidin-4-amine]
3.24	C[C@@]1(O)[C@@H]([C@H](O)c2ccc(F)c(F)c2F)O[C@@H](n2ccc3c(N)ncnc32)[C@@H]1O [Example 50, 7-[(5R)-3-C-methyl-5-C-(2,3,4-trifluorophenyl)-beta-D-ribofuranosyl]-7H-pyrrolo[2,3-d]pyrimidin-4-amine]
0.36	C[C@]1(O)[C@@H](O)[C@H](n2ccc3c(N)ncnc32)O[C@@H]1[C@](C)(O)c1ccnc(C(F)F)c1 [Example 80, 7-{6-deoxy-5-C-[2-(difluoromethyl)pyridin-4-yl]-3-C-methyl-alpha-L-talofuranosyl}-7H-pyrrolo[2,3-d]pyrimidin-4-amine]
> 10	C[C@@]1(O)[C@@H]([C@@H](O)c2cccc(F)c2F)O[C@@H](n2ccc3c(N)ncnc32)[C@@H]1O [Example 45, 7-[(5S)-5-C-(2,3-difluorophenyl)-3-C-methyl-beta-D-ribofuranosyl]-7H-pyrrolo[2,3-d]pyrimidin-4-amine]
0.141	C[C@@]1(O)[C@@H]([C@H](O)c2cc(F)cc(F)c2F)O[C@@H](n2ccc3c(N)ncnc32)[C@@H]1O [Example 52, 7-[(5R)-3-C-methyl-5-C-(2,3,5-trifluorophenyl)-beta-D-ribofuranosyl]-7H-pyrrolo[2,3-d]pyrimidin-4-amine]
